Read-outs that look alike come from different tables or passages of the source.
Experiments:
[1] = molecular target: human GABAA α1β2γ1 receptor (Homo sapiens (Human), UniProt P14867+Q8N1C3); test: Radioligand binding assay, competition for [3H]RO7239181, γ1-containing GABAA subtypes
[2] = molecular target: human GABAA α2β2γ1 receptor (Homo sapiens (Human), UniProt P47869+Q8N1C3); test: as above
[3] = molecular target: human GABAA α1β3γ2 receptor (Homo sapiens (Human), UniProt P14867+P18507); test: Radioligand binding assay, competition for [3H]Flumazenil, γ2-containing GABAA subtypes; details: for γ2/γ1 Selectivity Ratio: Ki α1β3γ2 (nM)/Ki α2β2γ1 (nM); for LogSel: Log[Ki α1β3γ2 (nM)/Ki α2β2γ1 (nM)]
In short: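 Competition against [3H]Flumazenil binding in HEK293F cells transiently expressing human α1β3γ2 receptors, pellets resuspended in mannitol buffer pH 7,2-7,4. Incubated to equilibrium 1 hour at 4° C, filtered and washed with ice-cold 50 mM Tris pH 7.5, bound radioactivity by liquid scintillation counting. Ki values are means of two determinations.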

[4] = Ki h-GABAA α1β2γ1, Table 3, reference compounds and examples
[5] = Ki h-GABAA α1β2γ1, membranes of HEK293F cells, [3H]RO7239181 20-30 nM, Table 1
[6] = Ki h-GABAA α2β2γ1, Table 3, reference compounds and examples
[7] = Ki h-GABAA α2β2γ1, membranes of HEK293F cells, [3H]RO7239181 20-30 nM, Table 1
[8] = Ki h-GABAA α2β2γ1, membranes of HEK293F cells, [3H]RO7239181 20-30 nM, Table 2
[9] = membranes of HEK293F cells, [3H]RO7239181 20-30 nM, Table 1, read-out: Ki h-GABAA α1β2γ1
[10] = HEK293F cells, [3H]Flumazenil 1 nM, Table 1, read-out: Ki h-GABAA α1β3γ2

Row | SMILES | Ki [1, 4] | Ki [1, 5] | Ki [2, 6] | Ki [2, 7] | Ki [2, 8] | Ki [3] | γ2/γ1 Selectivity Ratio ([3]; Table 1) | γ2/γ1 Selectivity Ratio ([3]; Table 3) | LogSel ([3]; Table 1) | LogSel ([3]; Table 3) | Ki [1, 9] | Ki [3, 10] | Ki ([3]; read-out: Ki h-GABAA α1β3γ2, Table 3, reference compounds and examples)
1 | Cc1nnc2n1-c1sc3c(c1C(c1c(F)cccc1F)=N[C@H]2C)COCCC3 [Example 52, (7S)-9-(2,6-difluorophenyl)-3,7-dimethyl-13-oxa-18-thia-2,4,5,8-tetrazatetracyclo[8.8.0.02,6.011,17]octadeca-1(10),3,5,8,11(17)-pentaene] | 75.3 nM | 75.3 nM | 27.7 nM | 27.7 nM | 27.7 nM | 2780 nM | 100.3 | 100.3 | 2.00 | 2.0 | – | – | –
2 | C[C@@H]1N=C(c2c(F)cccc2F)c2c(sc3c2COC[C@H](C)O3)-n2nc(C(=O)N3CC(F)C3)nc21 [Example 40, [(7S,15S)-9-(2,6-difluorophenyl)-7,15-dimethyl-13,16-dioxa-18-thia-2,3,5,8-tetrazatetracyclo[8.8.0.02,6.011,17]octadeca-1(10),3,5,8,11(17)-pentaen-4-yl]-(3-fluoroazetidin-1-yl)methanone] | – | – | – | 20.5 nM | 20.5 nM | – | 568.5 | – | 2.75 | – | 286 nM | 11600 nM | –
3 | Cc1nnc2n1-c1sc3c(c1C(c1c(F)cccc1F)=N[C@H]2C)CCC[C@H](F)C3 (single isomer, unassigned) [Example 17] | – | 30.2 nM | – | 4.31 nM | 4.3 nM | 584 nM | 135.6 | – | 2.13 | – | – | – | –
4 | Cc1nnc2n1-c1sc3c(c1C(c1c(F)cccc1F)=N[C@H]2C)CC[C@H](F)CC3 (single isomer, unassigned) [Example 14] | – | 118 nM | – | 38.4 nM | 38.4 nM | 11000 nM | 286.6 | – | 2.46 | – | – | – | –
5 | Cc1nnc2n1-c1sc3c(c1C(c1c(F)cccc1F)=N[C@H]2C)CCCCC3 [Example 2, (7S)-9-(2,6-difluorophenyl)-3,7-dimethyl-18-thia-2,4,5,8-tetrazatetracyclo[8.8.0.02,6.011,17]octadeca-1(10),3,5,8,11(17)-pentaene] | – | 19.2 nM | – | 7.4 nM | 7.4 nM | 994 nM | 133.9 | – | 2.13 | – | – | – | –
6 | Cc1nnc2n1-c1sc3c(c1C(c1c(F)cccc1Cl)=N[C@H]2C)COCCO3 [Example 35, (7S)-9-(2-chloro-6-fluoro-phenyl)-3,7-dimethyl-13,16-dioxa-18-thia-2,4,5,8-tetrazatetracyclo[8.8.0.02,6.011,17]octadeca-1(10),3,5,8,11(17)-pentaene] | – | 47.2 nM | – | 18.8 nM | 18.8 nM | 3940 nM | 209.5 | – | 2.32 | – | – | – | –
7 | Cc1nnc2n1-c1sc3c(c1C(c1c(F)cccc1F)=N[C@H]2C)COCCO3 [Example 21, (7S)-9-(2,6-difluorophenyl)-3,7-dimethyl-13,16-dioxa-18-thia-2,4,5,8-tetrazatetracyclo[8.8.0.02,6.011,17]octadeca-1(10),3,5,8,11(17)-pentaene] | 52.6 nM | 52.6 nM | 20.2 nM | 20.2 nM | 20.2 nM | 1360 nM | 67.2 | 67.2 | 1.83 | 1.8 | – | – | 1360 nM
8 | Cc1nnc2n1-c1sc3c(c1C(c1c(F)cccc1F)=NC2)CCCCO3 [Example 18, 9-(2,6-difluorophenyl)-3-methyl-16-oxa-18-thia-2,4,5,8-tetrazatetracyclo[8.8.0.02,6.011,17]octadeca-1(10),3,5,8,11(17)-pentaene] | – | 55.1 nM | – | 20.9 nM | 20.9 nM | 428 nM | 20.5 | – | 1.31 | – | – | – | –
9 | Cc1nnc2n1-c1sc3c(c1C(c1c(F)cccc1F)=N[C@H]2C)CCCCO3 [Example 19, (7S)-9-(2,6-difluorophenyl)-3,7-dimethyl-16-oxa-18-thia-2,4,5,8-tetrazatetracyclo[8.8.0.02,6.011,17]octadeca-1(10),3,5,8,11(17)-pentaene] | – | 80.5 nM | – | 16.8 nM | 16.9 nM | 615 nM | 36.5 | – | 1.56 | – | – | – | –
10 | C[C@@H]1N=C(c2c(F)cccc2F)c2c(sc3c2COCCO3)-n2nc(C(=O)NCC(C)(C)O)nc21 [Example 45, (7S)-9-(2,6-difluorophenyl)-N-(2-hydroxy-2-methyl-propyl)-7-methyl-13,16-dioxa-18-thia-2,3,5,8-tetrazatetracyclo[8.8.0.02,6.011,17]octadeca-1(10),3,5,8,11(17)-pentaene-4-carboxamide] | – | – | – | 13.6 nM | 13.6 nM | – | 232.1 | – | 2.37 | – | 103 nM | 3150 nM | –
11 | CCOC1CN(C(=O)c2nc3n(n2)-c2sc4c(c2C(c2c(F)cccc2F)=N[C@H]3C)COCCO4)C1 [Example 31, [(7S)-9-(2,6-Difluorophenyl)-7-methyl-13,16-dioxa-18-thia-2,3,5,8-tetrazatetracyclo[8.8.0.02,6.011,17]octadeca-1(10),3,5,8,11(17)-pentaen-4-yl]-(3-ethoxyazetidin-1-yl)methanone] | – | 43.6 nM | – | 5.5 nM | 5.6 nM | – | 818.0 | – | 2.91 | – | – | 4540 nM | –
12 | C[C@@H]1N=C(c2c(F)cccc2F)c2c(sc3c2COCCO3)-n2nc(C(=O)NC[C@@](C)(O)C(F)(F)F)nc21 [Example 46, (7S)-9-(2,6-difluorophenyl)-7-methyl-N-[(2R)-3,3,3-trifluoro-2-hydroxy-2-methyl-propyl]-13,16-dioxa-18-thia-2,3,5,8-tetrazatetracyclo[8.8.0.02,6.011,17]octadeca-1(10),3,5,8,11(17)-pentaene-4-carboxamide] | – | 60 nM | – | 15.2 nM | 15.2 nM | – | 284.3 | – | 2.45 | – | – | 4320 nM | –
13 | Cc1nnc2n1-c1sc3c(c1C(c1c(F)cccc1F)=N[C@H]2C)CCCC(F)(F)C3 [Example 8, (7S)-9-(2,6-difluorophenyl)-15,15-difluoro-3,7-dimethyl-18-thia-2,4,5,8-tetrazatetracyclo[8.8.0.02,6.011,17]octadeca-1(10),3,5,8,11(17)-pentaene] | – | 312 nM | – | 51.3 nM | 51.3 nM | 2760 nM | 53.8 | – | 1.73 | – | – | – | –
14 | Cc1nnc2n1-c1sc3c(c1C(c1c(F)cccc1Cl)=N[C@H]2C)COCCC3 [Example 61, (7S)-9-(2-chloro-6-fluoro-phenyl)-3,7-dimethyl-13-oxa-18-thia-2,4,5,8-tetrazatetracyclo[8.8.0.02,6.011,17]octadeca-1(10),3,5,8,11(17)-pentaene] | – | 49.1 nM | – | 20.6 nM | 20.6 nM | 2520 nM | 122.4 | – | 2.09 | – | – | – | –
15 | C[C@@H]1N=C(c2c(F)cccc2F)c2c(sc3c2COCCO3)-n2nc(C(=O)N3CC(F)C3)nc21 [Example 24, (3-fluoroazetidin-1-yl)-[(7S)-9-(2,6-difluorophenyl)-7-methyl-13,16-dioxa-18-thia-2,3,5,8-tetrazatetracyclo[8.8.0.02,6.011,17]octadeca-1(10),3,5,8,11(17)-pentaen-4-yl]methanone] | – | 24.7 nM | – | 3.75 nM | 3.8 nM | – | 691.7 | – | 2.84 | – | – | 2600 nM | –

From US20240294543A1, “CYCLOHEPTA-THIENO-DIAZEPINE DERIVATIVES AS GABA A GAMMA1 PAM” (Hoffmann-La Roche Inc., priority 2021, published 2024)
